Source: patent US12427346B2, “P62 ligand compound, and composition for preventing, ameliorating or treating proteinopathies comprising the same” (AUTOTAC INC., priority 2018, dated 2025)

Experiments:
[1] = system: LC3; assay: Autophagy activity in cultured cells by immunoblotting, concentration series (Experimental Example 2); format: cell-based, human; conditions: HeLa cells; 1, 2, 5, 10 and 20 μM, 24 hours; immunoblot, FIG. 3
Description: In order to evaluate the autophagy activity efficacy by the compounds (Examples 1-25), HeLa cell line, which is a cell line derived from a cervical cancer patient, was cultured using a DMEM medium containing 10% FBS and 1% streptomycin/penicillin in an incubator with 5% carbon dioxide. As the representative compounds among the present compounds, the compounds of Examples 1, 2, 3, 5, 6, 7, 8, 9, 12 and 13 (Example 5 (YTK-1005), Example 1 (YTK-1105), Example 6 (YTK-1205), Example 7 (YTK-1305), Example 2 (YTK-2205), Example 3 (YTK-3305), Example 8 (YTK-105), Example 9 (YTK-205), Example 14 (YTK-1108), Example 12 (YT 5-7), Example 13 (YT 5-8)), Example 20 (ATB10041), Example 21 (ATB10042), Example 22 (ATB10043), Example 23 (ATB10044), Example 24 (ATB10045), and Example 25 (ATB10046)) were selected. In order to measure autophagy activity according to the treatment with these selected representative compounds, the respective cells were dispensed into 6 well plates. Additional cultures were performed for 24 hours so that the cells were completely attached to the surface of the plate. To find the concentration at which the respective compounds could increase the phenomenon of autophagy, the test compounds were diluted at 1, 2, 5, 10 and 20 μM and treated. After treatment with the respective compounds, the cells were cultured again in a cell incubator for 24 hours, and then the cells were collected. To extract proteins from the collected cells, 100 ul of lysis buffer (20 mM Tris (pH 7.4), 150 mM NaCl, 1% Triton X-100, 2 mM NaF, 2 mM EDTA, 2 mM beta-glycerophosphate, 5 mM sodium orthovanadate, 1 mM PMSF, leupeptin, aprotinin) was injected into each sample, and cells were lysed. Based on the measured total protein concentration, a sample buffer was added to each sample and allowed to react at 100° C. for 5 minutes. 5 ul was taken from the samples after the reaction, and dispensed into each well of acrylamide gel, and then immunoblotting was performed.

[2] = molecular target: T1, p62 protein (Homo sapiens, UniProt Q13501); assay: Oligomerization activity of p62 protein by immunoblotting (Experimental Example 1); format: cell-based; conditions: HEK293 cell lysate treated with test compounds at room temperature for 2 hours; immunoblot, FIG. 2
T1 construct: endogenous in cells; host or cells: HEK293 (lysate treated with compounds)
Description: In order to evaluate the p62 protein oligomerization activity efficacy by the compounds (Examples 1-25), HEK293 cell line, which is human embryonic kidney-derived cell, was collected. As the representative compounds among the present compounds, the compounds of Examples 1, 2, 3, 5, 6, 7, 8, 9, 12, and 13 (Example 10 (YT-5-1), Example 11 (YT-5-2), Example 12 (YT 5-7), Example 13 (YT 5-8), Example 15 (YT-8-7), Example 16 (YT-8-8), Example 17 (YTK-107), Example 18 ([…]), Example 20 (ATB10041), Example 21 (ATB10042), Example 22 (ATB10043), Example 23 (ATB10044), Example 24 (ATB10045) and Example 25 (ATB10046)) were selected. In order to measure intracellular p62 protein activation and oligomerization according to the treatment with these selected representative compounds, the respective cells were dispensed into a 100 pi dish. The cells were collected after further culturing for 24 hours so that the cells were completely attached to the surface of the plate. 100 ul of lysis buffer (20 mM Tris, pH 7.4), 150 mM NaCl, 1% Triton X-100, 2 mM NaF, 2 mM EDTA, 2 mM beta-glycerophosphate, 5 mM sodium orthovanadate, 1 mM PMSF, leupeptin, aprotinin) were injected into each sample and the cells were lysed. Based on the measured total protein concentration, each sample was treated with test compounds at room temperature for 2 hours, and then a sample buffer was added and allowed to react at 95° C. for 10 minutes. 25 ul was taken from the samples after the reaction, and dispensed into each well of acrylamide gel, and then immunoblotting was performed.

[3] = system: p62 and LC3; assay: Autophagy activity by immunofluorescence staining and confocal microscopy (Experimental Example 5); format: cell-based, human; conditions: HeLa cells, 5 uM, 24 hours, FIG. 6
Description: In order to confirm the p62 protein activity and the activity level of autophagy phenomenon by the compounds (Examples 1-25), immunofluorescence staining was performed using p62 and LC3 as markers. In order to confirm the p62 activity and the activity level of autophagy phenomenon by new p62 ligands and isomers thereof in cultured cells, HeLa cell line, which is a cell line derived from cervical cancer patient, was treated with the novel p62 ligand compounds (YTK-1205, YTK-1305, YTK-2205, YTK-3305, YTK-105, YTK-205, YT 5-1, YT 9-1, YT 5-2, YT 9-2, YT 8-2, YT 8-1, YTK-107, YTK-207) and cultured. Thereafter, as markers of the autophagy phenomenon, the expression level and location of LC3 puncta and the local co-existence with p62 puncta were observed.
For immunofluorescence staining, a cover glass was placed on a 24-well plate, cells were dispensed, cultured for 24 hours, and then treated with 5 uM of the novel p62 ligands according to the present invention. For the action of the compounds, additional cultures were performed for 24 hours, and then the medium was removed. Cells were fixed using formaldehyde at room temperature. In order to prevent non-specific staining, the cells were allowed to react with a blocking solution at room temperature for 1 hour, and then treated with LC3 antibody diluted at a certain ratio using the blocking solution, and allowed to reacted at room temperature for 1 hour. The antibody-treated cells were washed three times with PBS, and goat-derived secondary antibody was diluted at a certain ratio using the blocking solution, and then allowed to react at room temperature for 30 minutes. The cells were washed again with PBS three times, and for intracellular nuclear staining, the expression level, intracellular puncta formation and intracellular coexistence level of p62 and LC3 were observed through a confocal microscopy after DAPI staining.

[4] = system: LC3; assay: Autophagy activity in cultured cells by immunoblotting, treatment time (Experimental Example 3); format: cell-based, human; conditions: HeLa cells; 5 μM for 1, 3, 6, 12, 24, 48 hours or 10 μM for 24 hours; immunoblot, FIG. 4
Description: In order to investigate the autophagy activity efficacy by the compounds (Examples 1-25), immunoblotting was performed in the same manner as in Experimental Example 2 using LC3 as a marker. As for the difference, in order to evaluate the treatment time required for activation and the activity retention time, 5 μM of the representative compounds selected among the present compounds (Example 5 (YTK-1005), Example 6 (YTK-1205), Example 7 (YTK-1305), Example 2 (YTK-2205), Example 3 (YTK-3305), Example 14 (YTK-1108), Example 8 (YTK-105), Example 9 (YTK-205)) were treated for 1, 3, 6, 12, 24, 48 hours. On the other hand, 10 μM of the representative compounds selected among the present compounds (Example 10 (YT 5-1), Example 11 (YT 5-2), Example 16 (YT 8-8), Example 15 (YT 8-7), Example 17 (YTK-107), Example 18 (YTK-207), Example 20 (ATB10041), Example 21 (ATB10042), Example 22 (ATB10043), Example 23 (ATB10044), Example 24 (ATB10045), Example 25 (ATB10046)) were treated for 24 hours.

T1 sequence (Q13501 whole entry): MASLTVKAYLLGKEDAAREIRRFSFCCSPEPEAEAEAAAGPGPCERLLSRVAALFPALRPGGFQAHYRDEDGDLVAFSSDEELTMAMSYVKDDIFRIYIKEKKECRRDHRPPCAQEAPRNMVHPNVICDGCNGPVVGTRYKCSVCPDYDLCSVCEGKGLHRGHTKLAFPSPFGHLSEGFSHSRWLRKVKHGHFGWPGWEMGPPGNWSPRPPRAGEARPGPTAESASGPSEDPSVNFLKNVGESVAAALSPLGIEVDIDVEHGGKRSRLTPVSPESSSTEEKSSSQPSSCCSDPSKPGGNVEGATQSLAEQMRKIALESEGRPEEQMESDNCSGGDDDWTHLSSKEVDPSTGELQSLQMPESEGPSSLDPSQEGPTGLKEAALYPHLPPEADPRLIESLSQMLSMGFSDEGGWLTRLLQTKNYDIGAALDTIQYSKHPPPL

Compound	autophagy activity (level of LC3) [1]	p62 protein oligomerization activity (monomer, oligomers and high-molecular aggregates) [2]	p62 activation and oligomerization, delivery to autophagosome, autophagy activity (p62 and LC3 puncta, local coexistence) [3]	autophagy activity (level of LC3) [4]
OCCNCc1ccc(OCc2ccccc2)c(OCc2ccccc2)c1 [YTK-1105, 2-((3,4-bis(benzyloxy)benzyl)amino)ethan-1-ol]	increasing the autophagy activity	–	–	–
OCCNCc1cccc(OCc2ccc(F)cc2)c1 [YT 5-8, 2-((3-((4-fluorobenzyl)oxy)benzyl)amino)ethan-1-ol]	increasing the autophagy activity	increasing the p62 protein oligomerization activity	–	–
N=C(N)NCCNCc1cccc(OCCc2ccccc2)c1 [YTK-207]	–	increasing the p62 protein oligomerization activity	allow the activation and oligomerization of p62 proteins, and then show the efficacy of delivering them to autophagosome and simultaneously increasing autophagy activity	increasing the autophagy activity
OCCNCc1ccc(OCc2ccccc2)c(OCCCc2ccccc2)c1 [YTK-1305, 2-((4-(benzyloxy)-3-(3-phenylpropoxy)benzyl)amino)ethan-1-ol]	increasing the autophagy activity	–	allow the activation and oligomerization of p62 proteins, and then show the efficacy of delivering them to autophagosome and simultaneously increasing autophagy activity	–
OCCNCCNCc1ccc(OCc2ccccc2)c(OCc2ccccc2)c1 [YTK-1108, 2-((2-((3,4-bis(benzyloxy)benzyl)amino)ethyl)amino)ethan-1-ol]	increasing the autophagy activity	–	–	–
OCCNCc1ccc(OCCCc2ccccc2)c(OCCCc2ccccc2)c1 [YTK-3305, 2-((3,4-bis(3-phenylpropoxy)benzyl)amino)ethan-1-ol]	increasing the autophagy activity	–	allow the activation and oligomerization of p62 proteins, and then show the efficacy of delivering them to autophagosome and simultaneously increasing autophagy activity	–
OCCNCc1cccc(OCc2ccc(Cl)cc2)c1 [YT 5-7, 2-((3-((4-chlorobenzyl)oxy)benzyl)amino)ethan-1-ol]	increasing the autophagy activity	increasing the p62 protein oligomerization activity	–	–
OCCNCc1ccc(OCc2ccccc2)c(OCCc2ccccc2)c1 [YTK-1205, 2-((4-(benzyloxy)-3-phenethoxybenzyl)amino)ethan-1-ol]	increasing the autophagy activity	–	allow the activation and oligomerization of p62 proteins, and then show the efficacy of delivering them to autophagosome and simultaneously increasing autophagy activity	–
OCCNCc1ccc(OCc2ccc(F)cc2)c(OCc2ccc(F)cc2)c1 [YT-5-2, 2-((3,4-bis((4-fluorobenzyl)oxy)benzyl)amino)ethan-1-ol]	–	increasing the p62 protein oligomerization activity	allow the activation and oligomerization of p62 proteins, and then show the efficacy of delivering them to autophagosome and simultaneously increasing autophagy activity	increasing the autophagy activity
OCCNCc1ccc(OCc2ccc(Cl)cc2)c(OCc2ccc(Cl)cc2)c1 [YT-5-1, 2-((3,4-bis((4-chlorobenzyl)oxy)benzyl)amino)ethan-1-ol]	–	increasing the p62 protein oligomerization activity	allow the activation and oligomerization of p62 proteins, and then show the efficacy of delivering them to autophagosome and simultaneously increasing autophagy activity	increasing the autophagy activity
OCCNCc1cccc(OCc2ccccc2)c1 [YTK-105, 2-((3-(benzyloxy)benzyl)amino)ethan-1-ol]	increasing the autophagy activity	–	allow the activation and oligomerization of p62 proteins, and then show the efficacy of delivering them to autophagosome and simultaneously increasing autophagy activity	increasing the autophagy activity
OCCNCc1ccc(OCCc2ccccc2)c(OCCc2ccccc2)c1 [YTK-2205, 2-((3,4-diphenethoxybenzyl)amino)ethan-1-ol]	increasing the autophagy activity	–	allow the activation and oligomerization of p62 proteins, and then show the efficacy of delivering them to autophagosome and simultaneously increasing autophagy activity	–
N=C(N)NCCNCc1cccc(OCc2ccccc2)c1 [YTK-107, 1-(2-((3-(benzyloxy)benzyl)amino)ethyl)guanidine]	–	increasing the p62 protein oligomerization activity	allow the activation and oligomerization of p62 proteins, and then show the efficacy of delivering them to autophagosome and simultaneously increasing autophagy activity	increasing the autophagy activity
